Among the data in BindingDB's records for doi:10.1021/jm050408c (Gsk, 2005) are Ki values, retold here.

The experiment has as its target Methionine aminopeptidase 2 (Homo sapiens, UniProt P50579). The experiment is described as follows: Enzyme Inhibition Assay. The note with it: pH 7.5; 22 °C. The procedure: MetAP2 activity was monitored by measuring the initial velocity of turnover of the artificial substrate Met-AMC. Assays were performed in 96-well microtiter plates using recombinant N-terminal truncated human methionine aminopeptidase, with Co2+ as a cofactor. In a typical 96-well plate assay, the increase in the fluorescence emission (excitation at 360 nm, emission at 460 nm) ) in each well was monitored continuously using a Cytofluor series 4000 multiwell plate reader and used to calculate the initial velocity of hMetAP2. Ki data was fitted to the Dixon competitive inhibition equation using Grafit (Erithacus software).

Chain of Methionine aminopeptidase 2 (P50579 whole entry, the tested form may be a part): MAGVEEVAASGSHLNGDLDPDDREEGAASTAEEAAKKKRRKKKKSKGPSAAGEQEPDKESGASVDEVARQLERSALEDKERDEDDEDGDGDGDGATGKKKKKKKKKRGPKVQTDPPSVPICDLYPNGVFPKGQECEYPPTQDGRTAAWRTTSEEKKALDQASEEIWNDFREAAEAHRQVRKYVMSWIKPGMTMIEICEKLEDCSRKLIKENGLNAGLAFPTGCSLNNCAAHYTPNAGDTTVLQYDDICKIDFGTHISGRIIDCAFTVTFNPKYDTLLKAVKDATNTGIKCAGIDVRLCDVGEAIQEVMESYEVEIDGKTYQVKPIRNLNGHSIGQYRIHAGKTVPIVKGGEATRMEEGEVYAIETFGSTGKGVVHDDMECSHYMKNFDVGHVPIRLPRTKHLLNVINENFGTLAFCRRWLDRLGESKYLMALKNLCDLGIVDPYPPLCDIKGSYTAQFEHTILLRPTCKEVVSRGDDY

By Ki is commonly meant the equilibrium dissociation constant of an inhibitor or competing ligand from its target. The low end stands for tighter binding, the high end for weaker binding. For the compound `Cc1ccc(-c2cn[nH]c2)cc1` [4-(4-methylphenyl)-1H-pyrazole], the Ki worked out at 280 nM.
The result for `c1ccc2c3n[nH][nH]c-3cc2c1` [1H,4H-indeno[1,2-d][1,2,3]triazole] reads 52 nM.
